Values quoted from earlier work in patent US20230149425A1, “PROCESS AND THERAPEUTIC COMPOSITION FOR TREATING AND PREVENTING SEVERE INJECTION SITE REACTIONS” (Brii Biosciences, Inc., priority 2021, published 2023).

Assays:
[1] = lactating women
[2] = oral

CC(=O)[C@H]1CC[C@H]2[C@@H]3CC[C@H]4C[C@H](O)CC[C@]4(C)[C@H]3CC[C@]12C [brexanolone, 5α-pregnane-3α-ol-20-one]
concentrations in milk and plasma [1]: low
risk to breastfed infants [1]: low risk

C[C@@]1(O)CC[C@H]2[C@H](CC[C@@H]3[C@@H]2CC[C@]2(C)[C@@H](C(=O)Cn4cc(C#N)cn4)CC[C@@H]32)C1 [SAGE-217]
reduction of depressive symptoms in clinical trials ([2]; administration for 14 days): mixed results
adverse events versus placebo ([2]; clinical trials): more adverse events than the placebo

C[C@]12CCC(=O)C=C1CC[C@@H]1[C@@H]2C(=O)C[C@@]2(C)[C@H]1CC[C@]2(O)C(=O)CO [cortisone]
safety and pain relief of injection in lactating women: safe and efficient for pain relief
